The text below walks through data of patent US4038384A, “Antibiotic A-28086 and process for production thereof” (Eli Lilly and Company, priority 1975, dated 1977).

A short description of data set [1]: In vivo feed-utilization efficiency in sheep. The following applies: 56 days.
The nature of data set [2]: Electrometric titration in 80% aqueous dimethylformamide (pKa).
A further data set deals with rumen flora. Nature of the data set: In vitro rumen fluid test, volatile fatty acid production. It is filed as cell-based, steer. The following applies: 1 ppm in rumen fluid, 16 hours, 38° C. The text has this: As discussed hereinabove, efficiency of carbohydrate utilization in ruminants is increased by treatments which stimulate the animal's rumen flora to produce propionate compounds rather than acetate or butyrate compounds. The efficiency of feed use can be monitored by observing the production and concentration of propionate compounds in the rumen, using the following methods:
Rumen fluid is obtained from a steer with a surgically-installed fistula opening into the rumen. The steer is maintained on a high-grain ration. A sample of rumen fluid is strained through four layers of cheesecloth, and the filtrate is collected. The particulate matter retained by the cheesecloth is resuspended in enough physiological buffer to return it to the original volume of the rumen fluid, and this suspension is strained again. The buffer used has the following composition:
The two filtrates are combined and allowed to stand until particulate matter separates to the top. The clear layer is separated, diluted with the same buffer (1:1) and then adjusted to between pH 6.8 to 7.0.
The diluted rumen fluid (10 ml) is placed in a 25-ml flask with 40 mg of the above-described feed, an additional 1 mg of soybean protein, and the compound to be tested. Four replicate flasks are used per treatment. Two sets of four control flasks each are also employed. A zero-time control and an incubated 16-hour control are used. All test flasks are incubated for 16 hours at 38° C. […] The samples are allowed to settle, and the supernatants are analyzed by gas chromatography for propionate, acetate, and butyrate compounds.

The test system of data set [3] is Staphylococcus aureus (H-Heatley) NRRL B-314. Nature of the data set: Turbidometric assay (Autoturb), relative gram-positive activity. It is filed as cell-based. The following applies: relative to A-28086 factor A standard = 1; nutrient broth pH 7, 4 hours, 37° C. The method, then: The C2 -C6 -acyl ester derivatives of A-28086 factor A also have antibacterial and antifungal activity. In one aspect, these derivatives have increased gram-positive activity. The relative gram-positive activities of certain of these derivatives were compared with the activity of factor A. The compounds were tested by turbidometric assay on a semiautomated system (Autoturb microbiological assay system, Elanco) described by N. R. Kuzel and F. W. Kavanaugh in J. Pharmaceut. Sci. 60 (5), 764 and 767 (1971). In testing the A-28086 antibiotics, the following test parameters were used: Staphylococcus aureus (H-Heatley) NRRL B-314 in a nutrient broth medium (pH 7), incubated for 4 hours at 37° C. Test samples and the standard were dissolved in methanol-water (10:90). The standard, A-28086 factor A, was presented to the Autoturb carrousel at concentrations of 2, 3, 4, and 5 mcg/ml. Test compounds were diluted to contain approximately 3 or 4 mcg of activity per ml, as presented to the carrousel. The relative activities of test compounds, as compared to that of the standard, are given below: […]

Data set [4] concerns E. necatrix and E. tenella. Nature of the data set: Anticoccidial activity in chicks against mixed Eimeria species. It is filed as in vivo, E. necatrix and E. tenella; broiler cockerels. The following applies: 0.005% in feed. The text has this:
(§1) ^1 Four replicates, 5 broiler cockerels each.

Another data set has as its system ruminal propionic acid. Nature of the data set: In vivo ruminal propionic acid concentration in fistulated steers. The following applies: 100 mg/day, mean of five analyses in 14 days. The method, then: The test reported in Table XII was conducted with mature fistulated steers weighing about 1,000 lbs. each. Two steers were fed a normal diet, and four steers in each treatment group were fed an identical diet to which A-28086 factor A had been added. To each aliquot (100 ml) of rumen fluid taken, 10 percent metaphosphoric acid (100 ml) was added. The samples were allowed to settle, and the supernatants were analyzed by gas chromatographic methods to determine propionic acid concentrations.
The results in Table XII are the mean percent increases in ruminal propionic acid concentration, averaged over five analyses in a 14-day treatment period. Controls had approximately 20 molar percent propionic acid.

In a further data set the test system is Eimeria tenella. Nature of the data set: Anticoccidial activity in chicks against Eimeria tenella. The following applies: for Percent Weight Gain: normal controls 100. It is filed as in vivo, Eimeria tenella; chickens.
The subject of data set [5] is E. tenella, E. necatrix, E. maxima, E. brunetti, E. acervulina, and E. mivati. Nature of the data set: Anticoccidial activity in chicks against mixed Eimeria species. The following applies: 0.01% in feed. It is filed as in vivo.
Description: as §1

Data set [6] can be described thus: Solubility in water and organic solvents. It is filed as physicochemical. The following applies: nonpolar organic solvents such as hexane.
Data set [7] is described as follows: General microbiological (antibacterial/antifungal) activity. The following applies: in words. It is filed as cell-based.

In the case of `CCC(C(=O)O)C1OC(C(C)C(O)C(C)C(=O)C(CC)C2OC3(C=CC(O)C4(CCC(C)(C5CCC(O)(CC)C(C)O5)O4)O3)C(C)CC2C)C(C)CC1C` (stereo not shown) [A-28086 factor A], the results for the Feed/Grain in data set [1] (9 g per ton of feed) and in [1] (18 g per ton of feed) were 7.40 and 8.31, respectively. Also, the “pKa value of titratable group” value in data set [2] was 7.9. The “Ratio of Treated to Control, Molar % acetate” value (from here on “Ratio … Molar % acetate”) in the data set on rumen flora was 0.94. For the same molecule, the “Ratio of Treated to Control, Molar % butyrate” value (from here on “Ratio … Molar % butyrate”) in the data set on rumen flora came to 0.87. Further, in [3], the “Relative G^+ Activity” value was 1. The “Cecal Lesions Percent Reducton” value is on record as 50% in [4] and 73% in [5]. The “Percent Increase Over Control in ruminal propionic acid concentration” value with ruminal propionic acid turned out to be 54.0%. The “Percent Reduction in Lesion Score” value in the data set with Eimeria tenella (0.0025% in feed, second group) is 0%; with Eimeria tenella (0.005% in feed, second group), 27%; in the data set with Eimeria tenella (0.01% in feed, first group), 95%; in the data set with Eimeria tenella (0.01% in feed, second group), 100%; with Eimeria tenella (0.02% in feed, first group) it was 95%; in the data set on Eimeria tenella (0.02% in feed, second group) it was 100%. Further, the “Percent Reduction in Lesion Score” value in the data set on Eimeria tenella (0.04% in feed, first group) is 100%. Moreover, the “Percent Mortality” value with Eimeria tenella (0.0025% in feed, second group (20 chickens)) is given as 10%; in the data set with Eimeria tenella (0.005% in feed, second group (20 chickens)), 0%; in the data set with Eimeria tenella (0.01% in feed, first group (10 chickens)) it was 0%; in the data set on Eimeria tenella (0.01% in feed, second group (20 chickens)), 0%; in the data set with Eimeria tenella (0.02% in feed, first group (10 chickens)) it was 0%; in the data set with Eimeria tenella (0.02% in feed, second group (20 chickens)), 0%. The “Percent Mortality” value in the data set on Eimeria tenella (0.04% in feed, first group (10 chickens)) was 0%. The “Percent Weight Gain” value turned out to be 87% in the data set with Eimeria tenella (0.0025% in feed, second group); 91% with Eimeria tenella (0.005% in feed, second group); 94% in the data set with Eimeria tenella (0.01% in feed, first group); 96% in the data set with Eimeria tenella (0.01% in feed, second group); 82% with Eimeria tenella (0.02% in feed, first group); 84% with Eimeria tenella (0.02% in feed, second group). In addition, in the data set on Eimeria tenella (0.04% in feed, first group), the “Percent Weight Gain” value was 50%. The “Average Lesion Score” value with Eimeria tenella (0.005% in feed, second group) was found to be 2.8; with Eimeria tenella (0.01% in feed, first group), 0.2; in the data set on Eimeria tenella (0.01% in feed, second group), 0; in the data set on Eimeria tenella (0.02% in feed, first group) it was 0.2; with Eimeria tenella (0.02% in feed, second group), 0; in the data set with Eimeria tenella (0.04% in feed, first group) it was 0. In addition, the “solubility in nonpolar organic solvents” value in data set [6] is reported as “only slightly soluble”.
In the case of `CCCCCC(=O)OC1C=CC2(OC(C(CC)C(=O)C(C)C(O)C(C)C3OC(C(CC)C(=O)O)C(C)CC3C)C(C)CC2C)OC12CCC(C)(C1CCC(O)(CC)C(C)O1)O2` (stereo not shown) [A-28086 factor A n-caproyl ester derivative], in the data set with rumen flora, the “Ratio … Molar % acetate” value stood at 0.86; the “Ratio … Molar % butyrate” value was found to be 0.97; the “Ratio of Treated to Control, Total VFA mM/l” value turned out to be 0.99. The “Relative G^+ Activity” value in data set [3] came out at 20.
As to `CCCCC(=O)OC1C=CC2(OC(C(CC)C(=O)C(C)C(O)C(C)C3OC(C(CC)C(=O)O)C(C)CC3C)C(C)CC2C)OC12CCC(C)(C1CCC(O)(CC)C(C)O1)O2` (stereo not shown) [A-28086 factor A n-valeryl ester derivative], in the data set with rumen flora, the “Ratio … Molar % acetate” value amounted to 0.92 and the “Ratio … Molar % butyrate” value is reported as 0.79. The “Relative G^+ Activity” value in data set [3] is 14.
Regarding `CCC(C(=O)O)C1OC(C(C)C(O)C(C)C(=O)C(CC)C2OC3(C=CC(OC(C)=O)C4(CCC(C)(C5CCC(O)(CC)C(C)O5)O4)O3)C(C)CC2C)C(C)CC1C` (stereo not shown) [A-28086 factor A acetyl ester derivative, A-28086 factor A acetyl ester], the “pKa value of titratable group” value in [2] came out at 8.5. In the data set on rumen flora, the “Ratio … Molar % acetate” value was 0.79 and the “Ratio … Molar % butyrate” value came to 0.76. Further, the “Relative G^+ Activity” value in data set [3] was found to be 2.5.
On to `CCC(=O)OC1C=CC2(OC(C(CC)C(=O)C(C)C(O)C(C)C3OC(C(CC)C(=O)O)C(C)CC3C)C(C)CC2C)OC12CCC(C)(C1CCC(O)(CC)C(C)O1)O2` (stereo not shown) [A-28086 factor A propionyl ester derivative], for which, in the data set on rumen flora, the “Ratio … Molar % acetate” value was 0.90 and the “Ratio … Molar % butyrate” value is listed as 0.68. For the same molecule, the “Relative G^+ Activity” value in data set [3] is given as 7.
The corresponding values for `CCCC(=O)OC1C=CC2(OC(C(CC)C(=O)C(C)C(O)C(C)C3OC(C(CC)C(=O)O)C(C)CC3C)C(C)CC2C)OC12CCC(C)(C1CCC(O)(CC)C(C)O1)O2` (stereo not shown) [A-28086 factor A n-butyryl ester derivative] are 0.91, 0.81 and 8.
As for `CCC(C(=O)OC)C1OC(C(C)C(O)C(C)C(=O)C(CC)C2OC3(C=CC(O)C4(CCC(C)(C5CCC(O)(CC)C(C)O5)O4)O3)C(C)CC2C)C(C)CC1C` (stereo not shown) [A-28086-I], the microbiological activity result in [7] was “not microbiologically active”.
